Results as given in US7105485B2, “HO-1 suppressor as a diagnostic and prognostic test for dementing diseases” (The Sir Mortimer B. Davis - Jewish General Hospital, priority 2000, dated 2006).
“Also recorded” adds a separate entry of the source.

Assays:
HO-1 mRNA [1] = assay: Induction of HO-1 mRNA in rat astroglia by cysteamine treatment (Northern blot); assay type: cell-based; conditions: rat astroglia grown in standard culture media, CSH 880 μM x 6 hr
Method: (§1) Brain cell cultures: Rat astroglia were prepared as described in Schipper et al. (1999), herein incorporated by reference, as follows:
(§2) Pregnant Sprague-Dawley rats were obtained from Charles River Breeding Farms. Primary neural cell cultures were prepared from 1-day old neonates by mechanoenzymatic dissociation of cerebral tissue […] as previously described by Chopra et al., (1997), herein incorporated by reference. Cells were grown in Ham's F-12 and high-glucose DMEM (50:50 vol/vol) supplemented with 10 mM HEPES. 5% heat-inactivated horse serum, 5% heat-inactivated fetal bovine serum, and penicillin/streptomycin (50 U/ml and 50 μg/ml, respectively). […] The cultures were then incubated under the above-mentioned conditions for 6 days, at which time >98% of the cells composing the monolayer were astroglia, as determined by immunohistochemical labeling for the astrocyte-specific marker glial fibrillary acidic protein, as described by Chopra et al. (1995), herein incorporated by reference. […]
(§3) RNA isolation and Northern analysis: Cultured astrocytes were harvested using a rubber policeman, and cytoplasmic RNA was isolated using an acid guanidinium thiocyanate/phenol/chloroform extraction method, as described by Chomczynski and Sacchi (1987), herein incorporated by reference. […] Resulting bands on the autoradiograph were analyzed using a phosphorimager S1 densitometer. […]

HO-1 mRNA [2] = assay: HOS bioassay: effect of 24 h pre-incubation with plasma or plasma fractions on the induced HO-1 mRNA response of rat astroglia (Northern blot); assay type: cell-based; conditions: normal subjects taking antioxidants; vitamin E 400 U/day (N1); multiple very high-dose antioxidants (N2, N3)
Method: as §1, §2, §3

| Compound | HO-1 mRNA bands after cysteamine (CSH) treatment (HO-1 mRNA [1]) | HO-1 mRNA bands after cysteamine (CSH) treatment (HO-1 mRNA [1]; listed as CSH) | astrocyte HO-1 mRNA response to CSH with plasma of normal subjects on antioxidants (HO-1 mRNA [2]) |
| --- | --- | --- | --- |
| NCCS [Cysteamine] | induces strong HO-1 mRNA bands; also recorded: induces robust HO-1 mRNA bands | intense HO-1 mRNA signal |  |
| vitamin E |  |  | does not affect |
